Here are results for twelve compounds from US11897887B2, “sGC stimulators” (Tisento Therapeutics Inc., priority 2017, dated 2024).

In one data set the test system is Sprague-Dawley Rats. Description: Blood pressure change in Sprague-Dawley rats. To be noted: conscious rat, Compound I-15 (prodrug salt of I-2) dosed orally in water at 10 mg/kg, 160 minutes post-dose.
Description: Male rats (250-350 g body weight, supplied by Harlan Laboratories) were anesthetized with ketamine/xylazine and a heparinized saline fluid filled catheter implanted into the right femoral artery. The catheter was exteriorized between the scapula, capped, and the animal allowed to recover for at least 7 days post surgery prior to any compound testing. Prior to testing animals were maintained on normal diet, with free access to drinking water, under a 12 hour light-dark cycle.
On the day of experimentation, under inhaled isoflurane anesthesia, the catheter was uncapped and connected to a tether (Instech Labs) and pressure transducer (Harvard Apparatus). Blood pressure and heart rate were subsequently captured and analyzed with a dedicated data capture system (PowerLab, ADInstruments). Data sampling rates were set at 1 cycle per second. Once connected, each rat was allowed to recover from anesthesia and baseline blood pressure and heart rate levels were established in these conscious, freely-moving animals. Once baseline was established either vehicle (0.5% methylcellulose or 100% PEG400) or test article was administered orally (PO, 10 mg/kg) and the effects on blood pressure and heart rate monitored for up to 24 hours.
For the compound `OC(CNc1nc(-c2cn3ccnc3c(Cc3ccccc3F)n2)ncc1F)(C(F)(F)F)C(F)(F)F` [Compound I-2, 1,1,1,3,3,3-hexafluoro-2-(((5-fluoro-2-(8-(2-fluorobenzyl)imidazo[1,2-a]pyrazin-6-yl)pyrimidin-4-yl)amino)methyl)propan-2-ol], the “decrease of MAP (mean arterial pressure) below baseline” value is recorded as “about 10 mmHg”.

Still in this data set, the particulars now being: rat, dosed orally in water at 10 mg/kg, one hour post-dose.
Regarding `O=P([O-])([O-])OC(CNc1nc(-c2cn3ccnc3c(Cc3ccccc3F)n2)ncc1F)(C(F)(F)F)C(F)(F)F.[Na+].[Na+]` [Compound I-15], the “dosed Compound I-15 converted to Compound I-2” value is 97.5%.

The target of a further data set is T1, sGC enzyme (Homo sapiens, UniProt Q02153).
T1 construct: incorporated into these cells detect cGMP formed by the compounds stimulating the sGC enzyme; host or cells: HEK293 cells stably expressing the GloSensor 40F cGMP biosensor
T1 sequence (Q02153 1-619): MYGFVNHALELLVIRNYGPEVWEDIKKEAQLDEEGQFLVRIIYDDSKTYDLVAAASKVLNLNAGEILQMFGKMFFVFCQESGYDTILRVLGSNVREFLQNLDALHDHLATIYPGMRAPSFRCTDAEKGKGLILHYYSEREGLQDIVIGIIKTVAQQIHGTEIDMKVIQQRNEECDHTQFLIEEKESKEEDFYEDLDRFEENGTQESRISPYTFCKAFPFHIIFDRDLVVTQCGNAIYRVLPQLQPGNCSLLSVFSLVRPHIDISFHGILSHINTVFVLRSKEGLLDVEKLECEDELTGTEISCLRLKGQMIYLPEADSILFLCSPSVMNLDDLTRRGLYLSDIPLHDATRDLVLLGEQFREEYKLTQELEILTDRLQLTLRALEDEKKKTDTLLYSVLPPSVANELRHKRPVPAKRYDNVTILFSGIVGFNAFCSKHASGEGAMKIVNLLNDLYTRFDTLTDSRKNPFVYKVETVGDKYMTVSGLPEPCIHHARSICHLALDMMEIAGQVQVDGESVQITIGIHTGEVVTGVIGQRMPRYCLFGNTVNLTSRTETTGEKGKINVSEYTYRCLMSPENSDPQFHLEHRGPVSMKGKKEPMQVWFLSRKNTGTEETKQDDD
T1 sequence (Q02108 1-690 partner): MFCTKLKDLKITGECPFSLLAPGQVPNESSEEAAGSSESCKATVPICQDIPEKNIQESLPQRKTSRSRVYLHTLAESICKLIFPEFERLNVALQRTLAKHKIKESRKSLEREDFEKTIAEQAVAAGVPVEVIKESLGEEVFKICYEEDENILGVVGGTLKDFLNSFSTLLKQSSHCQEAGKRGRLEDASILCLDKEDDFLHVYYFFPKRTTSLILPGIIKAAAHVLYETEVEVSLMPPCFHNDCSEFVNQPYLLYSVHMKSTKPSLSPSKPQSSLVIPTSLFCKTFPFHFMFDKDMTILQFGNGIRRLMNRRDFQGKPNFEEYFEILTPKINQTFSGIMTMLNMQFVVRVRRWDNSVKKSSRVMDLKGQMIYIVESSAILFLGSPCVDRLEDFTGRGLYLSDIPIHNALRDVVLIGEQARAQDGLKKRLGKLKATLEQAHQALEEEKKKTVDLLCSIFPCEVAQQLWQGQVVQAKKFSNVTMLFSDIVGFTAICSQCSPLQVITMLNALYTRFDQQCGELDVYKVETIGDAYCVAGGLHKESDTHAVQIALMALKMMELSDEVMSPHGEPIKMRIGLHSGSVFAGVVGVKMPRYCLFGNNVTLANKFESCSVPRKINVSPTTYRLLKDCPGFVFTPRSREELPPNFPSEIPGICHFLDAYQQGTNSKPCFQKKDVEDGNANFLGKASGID
Description: cGMP GloSensor cell-based assay, 384-well format. To be noted: HEK293 cells expressing GloSensor 40F cGMP; 10 μM DETA-NONOate; 55 min incubation; normalized to high control Compound Y (30 μM); read-out: Glo-sGC Absolute EC50. Here is the method: Human embryonic kidney cells (HEK293) cells expressing GloSensor™ 40F cGMP (Part No: CS182801, Promega) were used to evaluate the activity of test compounds. The luminescent biosensors (engineered luciferase) that were incorporated into these cells detect cGMP formed by the compounds stimulating the sGC enzyme and emit luminescence.
cGMP GoSensor cells were maintained in Dulbecco's Modification of Eagle's Medium (DMEM) supplemented with fetal bovine serum (FBS, 10% final) and hygromycine (200 ug/ml). The day before assay, cells were plated in DMEM with 10% FBS in a 50 μL volume at a density of 1.5×10^4 cells/well in a poly-D-lysine coated 384-well flat white-bottom plate (Corning Cat No 35661). Cells were incubated overnight at 37° C. in a humidified chamber with 5% CO2. The next day, medium was removed and cells were replaced with 40 ul/well of GoSensor™, 2 mM (Promega Cat No E1291). Cells were treated for 90 minutes at 25° C. to allow the substrate to equilibrate in the cells. Test compounds and Diethylenetriamine NONOate (DETA-NONOate) was diluted to 3 mM (20×) in serum-free CO2 independent medium and serially diluted at 4× dilutions to create 5× dose curve from which 10 ul was added to the wells (x μM concentration for test compound solution and 10 μM concentration for DETA-NONOate solution; wherein x is one of the following final concentrations).
For the kinetics studies, luminescence was measured right away for 0.2 sec per well with Envision (Perkin Elmer). For endpoint SAR screening, data were collected after 55 min incubation at room temperature.
Data were normalized to a high control using the following equation: 100*(Sample-Low Control)/(High Control-Low Control), where the low control is the average of sixteen DMSO (1%) control datapoints, and the high control is the average of sixteen Compound Y (30 μM) datapoints, wherein Compound Y is depicted below. Data were fit using a 4-parameter fit (log(agonist) vs. response—variable slope) using GraphPad Prism Software v.5. n=2 for all compounds. The Absolute EC50 was interpolated from the curve fit and is defined as the concentration at which a given compound elicits 50% of the high control response after data normalization as indicated above. Compounds failing to elicit a minimum response of 50% are reported as >30 μM or ND (not determined). For compounds run in duplicate or n higher than 2, the result herein given is the geometric mean of the several results obtained.
As to `OC(CNc1nc(-c2cn3ccnc3c(Cc3ccccc3F)n2)ncc1Cl)C(F)(F)F` (racemic) [Compound I-8], the EC50 – broadly, the concentration giving half of the maximal effect – was in the range of 100 to 1000 nM. Take `COc1cnc(-c2cn3ncnc3c(Cc3ccccc3F)n2)nc1NCC(O)C(F)(F)F` (racemic) [Compound I-11]: the EC50 was 1000 to 30000 nM.

Regarding `OC(CNc1nc(-c2cn3ccnc3c(Cc3ccccc3F)n2)ncc1F)(C(F)(F)F)C(F)(F)F` [Compound I-2, 1,1,1,3,3,3-hexafluoro-2-(((5-fluoro-2-(8-(2-fluorobenzyl)imidazo[1,2-a]pyrazin-6-yl)pyrimidin-4-yl)amino)methyl)propan-2-ol], the EC50 is ≤ 100 nM.

As for `NC(=O)[C@](O)(CNc1nc(-c2cn3ccnc3c(Cc3ccccc3F)n2)ncc1F)C(F)(F)F` [Compound I-3], the EC50 is ≤ 100 nM. For `NC(=O)[C@](O)(CNc1nc(-c2cn3ccnc3c(Cc3cc(F)ccc3F)n2)ncc1F)C(F)(F)F` [Compound I-5], the EC50 was ≤ 100 nM. In the case of `OC(CNc1nc(-c2cn3ncnc3c(Cc3ccccc3F)n2)ncc1F)(C(F)(F)F)C(F)(F)F` [Compound I-6], the EC50 was in the range of 100 to 1000 nM. As for `CC(C)(O)CNc1nc(-c2cn3c(Cl)cnc3c(Cc3ccccc3F)n2)ncc1F` [Compound I-7], the EC50 lay in the range of 100 to 1000 nM. Still for that read-out and setting: the figure for `OCCNc1ccnc(-c2cn3ccnc3c(Cc3ccccc3F)n2)n1` [Compound I-9] is 100 to 1000 nM. Take `Cc1c(F)cc(Cc2nc(-c3ncc(Cl)c(NCC(O)(C(F)(F)F)C(F)(F)F)n3)cn3ccnc23)cc1F` [Compound I-10]: the EC50 lay within 1000 to 30000 nM. Same read-out and setting: the figure for `N#Cc1cnc(-c2cn3ncnc3c(Cc3ccccc3F)n2)nc1NCC(O)(C(F)(F)F)C(F)(F)F` [Compound I-12] is 100 to 1000 nM; for `O=P([O-])([O-])OC(CNc1nc(-c2cn3ccnc3c(Cc3ccccc3F)n2)ncc1F)(C(F)(F)F)C(F)(F)F.[Na+].[Na+]` [Compound I-15] it is 1000 to 30000 nM. As to `NC(=O)[C@](O)(CNc1nc(-c2cn3ncnc3c(Cc3ccccc3F)n2)ncc1F)C(F)(F)F` [Compound I-16], the EC50 fell in the range of 100 to 1000 nM.
